From patent publication US20200024278A1, “COMPOSITION COMPRISING ANTIBIOTIC COMPOUND AND AN HETEROCYCLIC COMPOUND AND THEIR USE IN PREVENTING OR TREATING BACTERIAL INFECTIONS” (MUTABILIS, priority 2016, published 2020)

Assays:
Assay in all cases: MIC, broth microdilution (CLSI), substance alone or ATB combined with compound at 4 or 8 μg/mL
Format in all cases: cell-based, A. baumannii
ABA 19606 = tested on: ABA 19606
Protocol: (§1) Compounds of the present invention were assessed against genotyped bacterial strains alone or in combination with an antibacterial. In the assays, MICs of said compounds or combination of antibiotics with fixed concentrations of said compounds (4 or 8 μg/mL) were determined by the broth microdilution method according to the Clinical Laboratory Standards Institute (CLSI-M7-A7). Briefly, compounds alone according to the invention were prepared in DMSO and spotted (2 μL each) on sterile polystyrene plates (Corning, 3788). Combinations of compounds and antibiotics dilutions were prepared in DMSO and spotted (1 μL each) on sterile polystyrene plates (Corning, 3788). Log phase bacterial suspensions were adjusted to a final density of 5·10^5 CFU/mL in cation-adjusted Mueller-Hinton broth (ca-MHB; Becton-Dickinson and Company) and added to each well (98 μL). Assays including Fosfomycin were supplemented with 25 μg/ml of Glucose-6-phosphate. Microplates were incubated for 16-20 h at 35° C. in ambient air. The MIC of the compounds was defined as the lowest concentration of said compounds that prevented bacterial growth as read by visual inspection. The MIC of ATB at each compound concentration was defined as the lowest concentration of ATB that prevented bacterial growth as read by visual inspection.

ABA 107292 = tested on: ABA 107292
Protocol: as §1

ABA UFR158 = tested on: ABA UFR158
Protocol: as §1

ABA UFR155 = tested on: ABA UFR155
Protocol: as §1

ABA UFR161 = tested on: ABA UFR161
Protocol: as §1

ABA UFR154 = tested on: ABA UFR154
Protocol: as §1

ABA UFR151 = tested on: ABA UFR151
Protocol: as §1

- MIC ATB alone (ABA 19606; antibiotic alone): 1 µg/mL
- MIC ATB combined with Example 1 @8 μg/ml (ABA 19606; with Example 1 @8 μg/ml): 1 µg/mL
- MIC ATB combined with Example 3 @8 μg/ml (ABA 19606; with Example 3 @8 μg/ml): <=0.25 μg/mL
- MIC ATB combined with Example 6 @8 μg/ml (ABA 19606; with Example 6 @8 μg/ml): <=0.25 μg/mL
- MIC ATB combined with Example 9 @4 μg/ml (ABA 19606; with Example 9 @4 μg/ml): <=0.25 μg/mL
- MIC ATB combined with Example 10 @8 μg/ml (ABA 19606; with Example 10 @8 μg/ml): <=0.25 μg/mL
- MIC ATB combined with Example 11 @8 μg/ml (ABA 19606; with Example 11 @8 μg/ml): <=0.25 μg/mL
- MIC ATB combined with Example 12 @8 μg/ml (ABA 19606; with Example 12 @8 μg/ml): <=0.25 μg/mL
- MIC ATB combined with Example 15 @4 μg/ml (ABA 19606; with Example 15 @4 μg/ml): <=0.25 μg/mL
- MIC ATB alone (ABA 107292; antibiotic alone): 64 µg/mL
- MIC ATB combined with Example 1 @8 μg/ml (ABA 107292; with Example 1 @8 μg/ml): 4 µg/mL
- MIC ATB combined with Example 3 @8 μg/ml (ABA 107292; with Example 3 @8 μg/ml): 2 µg/mL
- MIC ATB combined with Example 6 @8 μg/ml (ABA 107292; with Example 6 @8 μg/ml): 8 µg/mL
- MIC ATB combined with Example 9 @4 μg/ml (ABA 107292; with Example 9 @4 μg/ml): 8 µg/mL
- MIC ATB combined with Example 10 @8 μg/ml (ABA 107292; with Example 10 @8 μg/ml): 4 µg/mL
- MIC ATB combined with Example 11 @8 μg/ml (ABA 107292; with Example 11 @8 μg/ml): 32 µg/mL
- MIC ATB combined with Example 12 @8 μg/ml (ABA 107292; with Example 12 @8 μg/ml): 2 µg/mL
- MIC ATB combined with Example 15 @4 μg/ml (ABA 107292; with Example 15 @4 μg/ml): 4 µg/mL
- MIC ATB alone (ABA UFR158; antibiotic alone): 64 µg/mL
- MIC ATB combined with Example 1 @8 μg/ml (ABA UFR158; with Example 1 @8 μg/ml): 16 µg/mL
- MIC ATB combined with Example 3 @8 μg/ml (ABA UFR158; with Example 3 @8 μg/ml): 16 µg/mL
- MIC ATB combined with Example 6 @8 μg/ml (ABA UFR158; with Example 6 @8 μg/ml): <0.25 µg/mL
- MIC ATB combined with Example 9 @4 μg/ml (ABA UFR158; with Example 9 @4 μg/ml): 16 µg/mL
- MIC ATB combined with Example 10 @8 μg/ml (ABA UFR158; with Example 10 @8 μg/ml): 16 µg/mL
- MIC ATB combined with Example 11 @8 μg/ml (ABA UFR158; with Example 11 @8 μg/ml): 16 µg/mL
- MIC ATB combined with Example 12 @8 μg/ml (ABA UFR158; with Example 12 @8 μg/ml): 16 µg/mL
- MIC ATB combined with Example 15 @4 μg/ml (ABA UFR158; with Example 15 @4 μg/ml): 32 µg/mL
- MIC ATB alone (ABA UFR155; antibiotic alone): 16 µg/mL
- MIC ATB combined with Example 1 @8 μg/ml (ABA UFR155; with Example 1 @8 μg/ml): 4 µg/mL
- MIC ATB combined with Example 3 @8 μg/ml (ABA UFR155; with Example 3 @8 μg/ml): 1 µg/mL
- MIC ATB combined with Example 6 @8 μg/ml (ABA UFR155; with Example 6 @8 μg/ml): 2 µg/mL
- MIC ATB combined with Example 9 @4 μg/ml (ABA UFR155; with Example 9 @4 μg/ml): 8 µg/mL
- MIC ATB combined with Example 10 @8 μg/ml (ABA UFR155; with Example 10 @8 μg/ml): 2 µg/mL
- MIC ATB combined with Example 11 @8 μg/ml (ABA UFR155; with Example 11 @8 μg/ml): 4 µg/mL
- MIC ATB combined with Example 12 @8 μg/ml (ABA UFR155; with Example 12 @8 μg/ml): 2 µg/mL
- MIC ATB combined with Example 15 @4 μg/ml (ABA UFR155; with Example 15 @4 μg/ml): 8 µg/mL
- MIC ATB alone (ABA UFR161; antibiotic alone): 128 µg/mL
- MIC ATB combined with Example 1 @8 μg/ml (ABA UFR161; with Example 1 @8 μg/ml): 32 µg/mL
- MIC ATB combined with Example 3 @8 μg/ml (ABA UFR161; with Example 3 @8 μg/ml): 16 µg/mL
- MIC ATB combined with Example 6 @8 μg/ml (ABA UFR161; with Example 6 @8 μg/ml): 16 µg/mL
- MIC ATB combined with Example 9 @4 μg/ml (ABA UFR161; with Example 9 @4 μg/ml): 8 µg/mL
- MIC ATB combined with Example 10 @8 μg/ml (ABA UFR161; with Example 10 @8 μg/ml): 16 µg/mL
- MIC ATB combined with Example 11 @8 μg/ml (ABA UFR161; with Example 11 @8 μg/ml): 8 µg/mL
- MIC ATB combined with Example 12 @8 μg/ml (ABA UFR161; with Example 12 @8 μg/ml): 8 µg/mL
- MIC ATB combined with Example 15 @4 μg/ml (ABA UFR161; with Example 15 @4 μg/ml): 16 µg/mL
- MIC ATB alone (ABA UFR154; antibiotic alone): 8 µg/mL
- MIC ATB combined with Example 1 @8 μg/ml (ABA UFR154; with Example 1 @8 μg/ml): 1 µg/mL
- MIC ATB combined with Example 3 @8 μg/ml (ABA UFR154; with Example 3 @8 μg/ml): 0.5 µg/mL
- MIC ATB combined with Example 6 @8 μg/ml (ABA UFR154; with Example 6 @8 μg/ml): <=0.25 μg/mL
- MIC ATB combined with Example 9 @4 μg/ml (ABA UFR154; with Example 9 @4 μg/ml): 0.5 µg/mL
- MIC ATB combined with Example 10 @8 μg/ml (ABA UFR154; with Example 10 @8 μg/ml): <=0.25 μg/mL
- MIC ATB combined with Example 11 @8 μg/ml (ABA UFR154; with Example 11 @8 μg/ml): <=0.25 μg/mL
- MIC ATB combined with Example 12 @8 μg/ml (ABA UFR154; with Example 12 @8 μg/ml): <=0.25 μg/mL
- MIC ATB combined with Example 15 @4 μg/ml (ABA UFR154; with Example 15 @4 μg/ml): 0.5 µg/mL
- MIC ATB alone (ABA UFR151; antibiotic alone): 2 µg/mL
- MIC ATB combined with Example 1 @8 μg/ml (ABA UFR151; with Example 1 @8 μg/ml): 0.5 µg/mL
- MIC ATB combined with Example 3 @8 μg/ml (ABA UFR151; with Example 3 @8 μg/ml): <=0.25 μg/mL
- MIC ATB combined with Example 6 @8 μg/ml (ABA UFR151; with Example 6 @8 μg/ml): <0.25 µg/mL
Structure (SMILES): CC1(C)[C@H](C(=O)O)N2C(=O)C[C@H]2S1(=O)=O [SUL]
